# Reference: US8618303B2, “Pyrrolidine derivatives” (Hoffmann-La Roche Inc., priority 2011, dated 2013)
# Biological target: human NK3 receptor (Homo sapiens (Human), UniProt P29371)
# Assay: [3H]SR142801 competition binding assay
# Conditions: not given
# Description: hNK3 receptor binding experiment were performed using [^3H]SR142801 (Catalog No. TRK1035, specific activity: 74.0 Ci/mmol, Amersham, GE Healthcare UK limited, Buckinghamshire, UK) and membrane isolated from HEK293 cells transiently expressing recombinant human NK3 receptor. After thawing, the membrane homogenates were centrifuged at 48,000×g for 10 min at 4° C., the pellets were resuspended in the 50 mM Tris-HCl, 4 mM MnCl2, 1 μM phosphoramidon, 0.1% BSA binding buffer at pH 7.4 to a final assay concentration of 5 μg protein/well. […] At the end of the incubation, membranes were filtered onto unitfilter (96-well white microplate with bonded GF/C filter preincubated 1 h in 0.3% PEI+0.3% BSA, Packard BioScience, Meriden, Conn.) with a Filtermate 196 harvester (Packard BioScience) and washed 4 times with ice-cold 50 mM Tris-HCl, pH 7.4 buffer. Nonspecific binding was measured in the presence of 10μM SB222200 for both radioligands. The radioactivity on the filter was counted (5 min) on a Packard Top-count microplate scintillation counter with quenching correction after addition of 45 μl of microscint 40 (Canberra Packard S.A., Ziirich, Switzerland) and shaking for 1 h. Inhibition curves were fitted according to the Hill equation: y=100/(1+(x/IC50), where nH=slope factor using Excel-fit 4 software (Microsoft). IC50 values were derived from the inhibition curve and the affinity constant (Ki) values were calculated using the Cheng-Prussoff equation Ki =IC50/(1+[L]/KD) where [L] is the concentration of radioligand and KD is its dissociation constant at the receptor, derived from the saturation isotherm. All experiments were performed in duplicate and the mean±standard error (SEM) of the individual Ki values was calculated.
# Chain of human NK3 receptor (P29371 whole entry): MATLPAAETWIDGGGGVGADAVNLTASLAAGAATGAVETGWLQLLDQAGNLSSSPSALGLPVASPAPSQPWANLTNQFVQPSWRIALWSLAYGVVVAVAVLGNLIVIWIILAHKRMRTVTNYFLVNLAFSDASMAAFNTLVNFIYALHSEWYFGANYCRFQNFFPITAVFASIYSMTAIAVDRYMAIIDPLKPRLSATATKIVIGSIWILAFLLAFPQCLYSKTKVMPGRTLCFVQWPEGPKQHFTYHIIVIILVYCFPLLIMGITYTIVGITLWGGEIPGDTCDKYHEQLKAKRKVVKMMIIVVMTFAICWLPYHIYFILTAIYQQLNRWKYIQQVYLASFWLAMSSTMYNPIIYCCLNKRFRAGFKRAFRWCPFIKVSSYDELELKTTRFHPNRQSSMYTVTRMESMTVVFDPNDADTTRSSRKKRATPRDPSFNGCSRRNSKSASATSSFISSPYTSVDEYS
row,SMILES,Ki
1,"CN(C(=O)Oc1ccc(F)cc1)[C@@]1(C)CN(C(=O)C2CCN(C3CCCCC3)CC2)C[C@@H]1c1ccc(Cl)cc1 (racemic) [Example 2, rac-[(3R,4S)-4-(4-Chloro-phenyl)-1-(1-cyclohexyl-piperidine-4-carbonyl)-3-methyl-pyrrolidin-3-yl]-methyl-carbamic acid 4-fluoro-phenyl ester]",0.0201 µM
2,"CN(C(=O)Oc1ccc(F)cc1)[C@@]1(C)CN(C(=O)C2CCN(c3ccc(C#N)cn3)CC2)C[C@@H]1c1ccc(Cl)cc1 (racemic) [Example 9, rac-[(3R,4S)-4-(4-Chloro-phenyl)-1-(5′-cyano-3,4,5,6-tetrahydro-2H-[1,2′]bipyridinyl-4-carbonyl)-3-methyl-pyrrolidin-3-yl]-methyl-carbamic acid 4-fluoro-phenyl ester]",0.0021 µM
3,"CN(C(=O)Oc1ccc(F)cc1)[C@@]1(C)CN(C(=O)C2CCN(c3ccc(F)cn3)CC2)C[C@@H]1c1ccc(Cl)cc1 (racemic) [Example 12, rac-[(3R,4S)-4-(4-Chloro-phenyl)-1-(5′-fluoro-3,4,5,6-tetrahydro-2H-[1,2′]bipyridinyl-4-carbonyl)-3-methyl-pyrrolidin-3-yl]-methyl-carbamic acid 4-fluoro-phenyl ester]",0.0076 µM
4,"CN(C(=O)Oc1ccc(F)cc1)[C@@]1(C)CN(C(=O)c2ccc(-c3ccc(F)cc3)cc2)C[C@@H]1c1ccc(Cl)cc1 (racemic) [Example 16, rac-[(3R,4S)-4-(4-Chloro-phenyl)-1-(4′-fluoro-biphenyl-4-carbonyl)-3-methyl-pyrrolidin-3-yl]-methyl-carbamic acid 4-fluoro-phenyl ester]",0.3 µM
5,"CN(C(=O)Oc1ccc(F)cc1)[C@@H]1CN(C(=O)C2CCN(C(=O)C3(C)CC3)CC2)C[C@@]1(C)c1ccc(Cl)cc1 (racemic) [Example 21, rac-{(3S,4R)-4-(4-Chloro-phenyl)-4-methyl-1-[1-(1-methyl-cyclopropanecarbonyl)-piperidine-4-carbonyl]-pyrrolidin-3-yl}-methyl-carbamic acid 4-fluoro-phenyl ester]",0.0319 µM
6,"CN(C(=O)Oc1ccc(F)cc1)[C@@H]1CN(C(=O)C2CCN(c3ccc(C#N)cc3)CC2)C[C@@]1(C)c1ccc(Cl)cc1 (racemic) [Example 22, rac-{(3S,4R)-4-(4-Chloro-phenyl)-1-[1-(4-cyano-phenyl)-piperidine-4-carbonyl]-4-methyl-pyrrolidin-3-yl}-methyl-carbamic acid 4-fluoro-phenyl ester]",0.0105 µM

# Same assay, conditions: membranes from HEK293 cells transiently expressing recombinant human NK3 receptor; [3H]SR142801; Ki from IC50 by Cheng-Prussoff; read-out: Ki (uM) hNK3
row,SMILES,Ki
1,"CC(C)C(=O)N1CCC(C(=O)N2C[C@H](c3ccc(Cl)cc3)[C@@](C)(N(C)C(=O)Oc3ccc(F)cc3)C2)CC1 (racemic) [Example 1, rac-[(3R,4S)-4-(4-Chloro-phenyl)-1-(1-isobutyryl-piperidine-4-carbonyl)-3-methyl-pyrrolidin-3-yl]-methyl-carbamic acid 4-fluoro-phenyl ester]",0.0105 µM
2,"CN(C(=O)Oc1ccc(F)cc1)[C@@]1(C)CN(C(=O)c2ccc(C#N)cc2)C[C@@H]1c1ccc(Cl)cc1 (racemic) [Example 3, rac-[(3R,4S)-4-(4-Chloro-phenyl)-1-(4-cyano-benzoyl)-3-methyl-pyrrolidin-3-yl]-methyl-carbamic acid 4-fluoro-phenyl ester]",0.0678 µM
3,"CC(=O)N1CCC(C(=O)N2C[C@H](c3ccc(Cl)cc3)[C@@](C)(N(C)C(=O)Oc3ccc(F)cc3)C2)CC1 (racemic) [Example 4, rac-[(3R,4S)-1-(1-Acetyl-piperidine-4-carbonyl)-4-(4-chloro-phenyl)-3-methyl-pyrrolidin-3-yl]-methyl-carbamic acid 4-fluoro-phenyl ester]",0.0116 µM
4,"CN(C(=O)Oc1ccc(F)cc1)[C@@]1(C)CN(C(=O)C2CCOCC2)C[C@@H]1c1ccc(Cl)cc1 (racemic) [Example 5, rac-[(3R,4S)-4-(4-Chloro-phenyl)-3-methyl-1-(tetrahydro-pyran-4-carbonyl)-pyrrolidin-3-yl]-methyl-carbamic acid 4-fluoro-phenyl ester]",0.0864 µM
5,"Cc1cc(C(=O)N2C[C@H](c3ccc(Cl)cc3)[C@@](C)(N(C)C(=O)Oc3ccc(F)cc3)C2)cnn1 (racemic) [Example 6, rac-[(3R,4S)-4-(4-Chloro-phenyl)-3-methyl-1-(6-methyl-pyridazine-4-carbonyl)-pyrrolidin-3-yl]-methyl-carbamic acid 4-fluoro-phenyl ester]",0.0649 µM
6,"CN(C(=O)Oc1ccc(F)cc1)[C@@]1(C)CN(C(=O)C2CCN(C(=O)C3(C)CC3)CC2)C[C@@H]1c1ccc(Cl)cc1 (racemic) [Example 7, rac-{(3R,4S)-4-(4-Chloro-phenyl)-3-methyl-1-[1-(1-methyl-cyclopropanecarbonyl)-piperidine-4-carbonyl]-pyrrolidin-3-yl}-methyl-carbamic acid 4-fluoro-phenyl ester]",0.005 µM
7,"Cc1ccc(N2CCC(C(=O)N3C[C@H](c4ccc(Cl)cc4)[C@@](C)(N(C)C(=O)Oc4ccc(F)cc4)C3)CC2)nc1 (racemic) [Example 8, rac-[(3R,4S)-4-(4-Chloro-phenyl)-3-methyl-1-(5′-methyl-3,4,5,6-tetrahydro-2H-[1,2′]bipyridinyl-4-carbonyl)-pyrrolidin-3-yl]-methyl-carbamic acid 4-fluoro-phenyl ester]",0.013 µM
8,"CN(C(=O)Oc1ccc(F)cc1)[C@@]1(C)CN(C(=O)C2CCN(c3ccc(C#N)cc3)CC2)C[C@@H]1c1ccc(Cl)cc1 (racemic) [Example 10, rac-{(3R,4S)-4-(4-Chloro-phenyl)-1-[1-(4-cyano-phenyl)-piperidine-4-carbonyl]-3-methyl-pyrrolidin-3-yl}-methyl-carbamic acid 4-fluoro-phenyl ester]",0.0038 µM
9,"CC(=O)c1ccc(N2CCC(C(=O)N3C[C@H](c4ccc(Cl)cc4)[C@@](C)(N(C)C(=O)Oc4ccc(F)cc4)C3)CC2)nc1 (racemic) [Example 11, rac-[(3R,4S)-1-(5′-Acetyl-3,4,5,6-tetrahydro-2H-[1,2′]bipyridinyl-4-carbonyl)-4-(4-chloro-phenyl)-3-methyl-pyrrolidin-3-yl]-methyl-carbamic acid 4-fluoro-phenyl ester]",0.0045 µM
10,"CN(C(=O)Oc1ccc(F)cc1)[C@@]1(C)CN(C(=O)C2CCN(c3ccc(Cl)cn3)CC2)C[C@@H]1c1ccc(Cl)cc1 (racemic) [Example 13, rac-[(3R,4S)-4-(4-Chloro-phenyl)-1-(5′-chloro-3,4,5,6-tetrahydro-2H-[1,2′]bipyridinyl-4-carbonyl)-3-methyl-pyrrolidin-3-yl]-methyl-carbamic acid 4-fluoro-phenyl ester]",0.01 µM
11,"CN(C(=O)Oc1ccc(F)cc1)[C@@]1(C)CN(C(=O)c2ccc(C#N)nc2)C[C@@H]1c1ccc(Cl)cc1 (racemic) [Example 14, rac-[(3R,4S)-4-(4-Chloro-phenyl)-1-(6-cyano-pyridine-3-carbonyl)-3-methyl-pyrrolidin-3-yl]-methyl-carbamic acid 4-fluoro-phenyl ester]",0.0774 µM
12,"CN(C(=O)Oc1ccc(F)cc1)[C@@]1(C)CN(C(=O)C2CCN(c3ccc(C(F)(F)F)cn3)CC2)C[C@@H]1c1ccc(Cl)cc1 (racemic) [Example 15, rac-[(3R,4S)-4-(4-Chloro-phenyl)-3-methyl-1-(5′-trifluoromethyl-3,4,5,6-tetrahydro-2H-[1,2′]bipyridinyl-4-carbonyl)-pyrrolidin-3-yl]-methyl-carbamic acid 4-fluoro-phenyl ester]",0.0115 µM
13,"Cc1nc(-c2ccc(C(=O)N3C[C@H](c4ccc(Cl)cc4)[C@@](C)(N(C)C(=O)Oc4ccc(F)cc4)C3)cc2)no1 (racemic) [Example 17, rac-{(3R,4S)-4-(4-Chloro-phenyl)-3-methyl-1-[4-(5-methyl-[1,2,4]oxadiazol-3-yl)-benzoyl]-pyrrolidin-3-yl}-methyl-carbamic acid 4-fluoro-phenyl ester]",0.0354 µM
14,"CN(C(=O)Oc1ccc(F)cc1)[C@@]1(C)CN(C(=O)C2CCN(c3ccc(C#N)nc3)CC2)C[C@@H]1c1ccc(Cl)cc1 (racemic) [Example 18, rac-[(3R,4S)-4-(4-Chloro-phenyl)-1-(6′-cyano-3,4,5,6-tetrahydro-2H-[1,3′]bipyridinyl-4-carbonyl)-3-methyl-pyrrolidin-3-yl]-methyl-carbamic acid 4-fluoro-phenyl ester]",0.0028 µM
15,"COc1ccc(N2CCC(C(=O)N3C[C@H](c4ccc(Cl)cc4)[C@@](C)(N(C)C(=O)Oc4ccc(F)cc4)C3)CC2)nn1 (racemic) [Example 19, rac-{(3R,4S)-4-(4-Chloro-phenyl)-1-[1-(6-methoxy-pyridazin-3-yl)-piperidine-4-carbonyl]-3-methyl-pyrrolidin-3-yl}-methyl-carbamic acid 4-fluoro-phenyl ester]",0.0129 µM
16,"CN(C(=O)Oc1ccc(F)cc1)[C@@]1(C)CN(C(=O)c2ccc(N3CCCCC3=O)cc2)C[C@@H]1c1ccc(Cl)cc1 (racemic) [Example 20, rac-{(3R,4S)-4-(4-Chloro-phenyl)-3-methyl-1-[4-(2-oxo-piperidin-1-yl)-benzoyl]-pyrrolidin-3-yl}-methyl-carbamic acid 4-fluoro-phenyl ester]",0.276 µM
